# Values quoted from earlier work in patent publication US6077513A, “Drug for treatment of bilharziasis (Schistosomiasis)” (priority 1997, dated 2000).
# Legend:
# [1] = test system: isolated guinea pig ileum
smiles,measurement,setting,value
CC1=C[C@@H]2[C@@H](CC1)[C@@](C)(O)CC[C@H]2C(C)C [T-Cadinol],smooth muscle relaxing effect,[1],concentration - dependent smooth muscle relaxing effect
same,antibacterial effect,Staphylococcus aureus,bacterial lysis and subsequent fatal loss of intracellular components
